The values below are quoted from earlier work in patent publication US20050226814A1, “Diagnostic method and kit for implantation of a sustained release drug-delivery implant with a steroid” (Bausch & Lomb Incorporated, priority 2004, published 2005).

Molecules are shown by their SMILES.

One data set has as its system retinochoroid disorders. The following applies: injection into the eye of a patient.
Data set [1] has as its system proliferative vitreoretinopathy. The following applies: injected into the sub-conjuctival area.

Consider `C[C@]12C=CC(=O)C=C1CC[C@H]1[C@@H]3C[C@@H](O)[C@](O)(C(=O)CO)[C@@]3(C)C[C@H](O)[C@@]12F` [trimacinolone, triamcinolone], for which the long-term effect result in the data set on retinochoroid disorders is listed as “did not have a significantly long-term effect”. Consider `C[C@]12CCC(=O)C=C1CC[C@@H]1[C@@H]2[C@@H](O)C[C@@]2(C)[C@H]1CC[C@]2(O)C(=O)CO` [hydrocortisone], for which the “effect on proliferative vitreoretinopathy” value in data set [1] was “inhibited proliferative vitreoretinopathy”.
